How the values were obtained:
VEGFR-2 = biological target: T1, VEGFR-2 (Homo sapiens, UniProt P35968); experiment: VEGFR-2 kinase assay kit (BPS), Kinase-Glo Max luminescence; type: biochemical; conditions: VEGFR-2, single dose 10 µM, duplicate, mean ± SD
T1 construct: purchased BPS Biosciences 40325
Method: 2. Biochemical kinase assay procedure
The inhibitory activity against different kinases was determined using kinase kits […]
from BPS Biosciences and kinase-Glo Max luminescence kinase assay kit (Promega).
The assay was carried out according to the protocol provided by the manufacturer. A stock solution of the synthesized derivatives in 100% DMSO was prepared. Subsequently, the compounds were diluted to 10% DMSO.
A master mixture was prepared according to the number of wells. For VEGFR-2 and FGFR-1 biochemical assays each well include 6 μl of 5x Kinase Buffer 1 + 1 μl of 500 μM ATP + 1 μl of PTK Substrate (Poly-Glu,Tyr 4:1) (10 mg/ml) + 17 μl of distilled water. For BRAF assay each well include 6 μl of 5x Kinase Buffer 1 + 1 μl of ATP (500 μM) + 10 μl of 5X Raf substrate + 8 μl of distilled water. 1x Kinase buffer 1 was prepared by mixing 600 μl of 5x Kinase Buffer 1 with 2400 μl water to give 3 mL. Kinases were thawed on ice and were diluted with 1x Kinase Buffer 1.
To start the biochemical reaction, 25 µL of the master mixture was added to each well in 96 well plate. 5 µL of 10% DMSO was added to positive control wells and blank wells. 5 µL of diluted inhibitor was added to each well labelled with the test inhibitor so that the final concentration of DMSO is 1% in all reactions. Then 20 µL of (1 ng / μl) in case of VEGFR-2 and FGFR-1 or (2.5 ng/μl) in case of BRAF in 1x kinase buffer was added to positive control wells and wells labelled with the inhibitor, while 20 µL 1x kinase buffer 1 was added to the […]
The plate was incubated at 30 °C for 45 min. Subsequently, 50 μl of Kinase-Glo Max luminescence reagent was added to each well and the plate was covered with aluminum foil and incubated at room temperature 15 min. Finally, the luminescence was recorded using multimode microplate reader. Kinase activity assays were performed in duplicate at each […]
The luminescence data were analyzed as follows. The difference between luminescence intensities in the absence of kinase (Lut) and in the presence of kinase (Luc) was defined as 100 % activity (Lut – Luc). Using luminescence signal (Lu) in the presence of the compound, % activity was calculated as: % activity = {(Lut - Lu)/(Lut - Luc)}×100%. The […]
concentration of the test compounds required to reduce the kinase activity by 50% was determined from dose-response curves and recorded as their IC50. […]

ACHN = experiment: NCI SRB growth inhibition (single dose 10 µM / five-dose); type: cell-based, human; conditions: Homo sapiens; for inhibition at 10 µM: ACHN (Renal cancer), read-out: GI%; for GI50: ACHN, Renal cancer, five-dose
Method: (§1) Screening of cytotoxic activity against a panel of sixty human tumor cell lines The selected compounds by NCI were evaluated for their anticancer activity in a two- stage process. […] Then, the output from the single dose screen is reported as a mean graph. […] Assay protocol. […] For a typical screening experiment, cells are inoculated into 96 well microtiter plates in 100 µL at plating densities ranging from 5000 to 40,000 cells/well depending on the doubling time of individual cell lines. […] After 24 h, two plates of each cell line are fixed in situ with TCA, to represent a measurement of the cell population for each cell line at the time of drug addition (Tz). The experimental drugs are solubilized in dimethyl sulfoxide at 400-fold the desired final maximum test concentration and stored frozen prior to use. At the time of drug addition, an aliquot of frozen concentrate is thawed and diluted to twice the desired final maximum test concentration with complete medium containing 50 µg/mL gentamicin. Additional four, 10-fold or ½ log serial dilutions are made to provide a total of five drug concentrations plus control. Aliquots of 100 mL of these different drug dilutions are added to the appropriate microtiter wells already containing […] of medium, resulting in the required final drug concentrations. […] For adherent cells, the assay is terminated by the addition of cold TCA. […] The supernatant is discarded, and the plates are washed five times with tap water and air dried. Sulforhodamine B (SRB) solution ([…]) at 0.4% (w/v) in 1% acetic acid is added to each well, and plates are incubated for 10 min at room temperature. After staining, unbound dye is removed by washing five times with 1% acetic acid and the plates are air dried. […] Using the seven absorbance measurements [time zero, (Tz), control growth, (C), and test growth in the presence of drug at the five concentration levels (Ti)], the percentage growth is calculated at each of the drug concentrations levels. Percentage growth inhibition is calculated as: [(Ti Tz)/(C–Tz)] x 100 for concentrations for which Ti>/=Tz and [(Ti-Tz)/Tz] x 100 for concentrations for which Ti < Tz. Three dose response parameters are calculated for each experimental agent. […] The drug concentration resulting in total growth inhibition (TGI) is calculated from Ti = Tz. […] Values are calculated for each of these three parameters if the level of activity is reached; however, if the effect is not reached or is exceeded, the value for that parameter is expressed as greater or less than the maximum or minimum concentration tested.

DU-145 = experiment: as above; type: cell-based, human; conditions: Homo sapiens; for inhibition at 10 µM: DU-145 (Prostate cancer), read-out: GI%; for GI50: DU-145, Prostate cancer, five-dose
Method: as §1

EKVX = experiment: as above; type: cell-based, human; conditions: Homo sapiens; for inhibition at 10 µM: EKVX (Non-small cell lung cancer), read-out: GI%; for GI50: EKVX, Non-small cell lung cancer, five-dose
Method: as §1

K-562 = experiment: as above; type: cell-based, human; conditions: Homo sapiens, K562; for inhibition at 10 µM: K-562 (Leukemia), read-out: GI%; for GI50: K-562, Leukemia, five-dose
Method: as §1

LOX IMVI = experiment: as above; type: cell-based, human; conditions: Homo sapiens; for inhibition at 10 µM: LOX IMVI (Melanoma), read-out: GI%; for GI50: LOX IMVI, Melanoma, five-dose
Method: as §1

M14 = experiment: as above; type: cell-based, human; conditions: Homo sapiens; for inhibition at 10 µM: M14 (Melanoma), read-out: GI%; for GI50: M14, Melanoma, five-dose
Method: as §1

NCI-H322M = experiment: as above; type: cell-based, human; conditions: Homo sapiens; for inhibition at 10 µM: NCI-H322M (Non-small cell lung cancer), read-out: GI%; for GI50: NCI-H322M, Non-small cell lung cancer, five-dose
Method: as §1

OVCAR-4 = experiment: as above; type: cell-based, human; conditions: Homo sapiens; for inhibition at 10 µM: OVCAR-4 (Ovarian cancer), read-out: GI%; for GI50: OVCAR-4, Ovarian cancer, five-dose
Method: as §1

RPMI-8226 = experiment: as above; type: cell-based, human; conditions: Homo sapiens; for inhibition at 10 µM: RPMI-8226 (Leukemia), read-out: GI%; for GI50: RPMI-8226, Leukemia, five-dose
Method: as §1

SK-MEL-2 = experiment: as above; type: cell-based, human; conditions: Homo sapiens; for inhibition at 10 µM: SK-MEL-2 (Melanoma), read-out: GI%; for GI50: SK-MEL-2, Melanoma, five-dose
Method: as §1

SNB-19 = experiment: as above; type: cell-based, human; conditions: Homo sapiens; for inhibition at 10 µM: SNB-19 (CNS cancer), read-out: GI%; for GI50: SNB-19, CNS cancer, five-dose
Method: as §1

T-47D = experiment: as above; type: cell-based, human; conditions: Homo sapiens, T47D; for GI50: T-47D, Breast cancer, five-dose; for inhibition at 10 µM: T-47D (Breast cancer), read-out: GI%
Method: as §1

T1 sequence (P35968 20-1356): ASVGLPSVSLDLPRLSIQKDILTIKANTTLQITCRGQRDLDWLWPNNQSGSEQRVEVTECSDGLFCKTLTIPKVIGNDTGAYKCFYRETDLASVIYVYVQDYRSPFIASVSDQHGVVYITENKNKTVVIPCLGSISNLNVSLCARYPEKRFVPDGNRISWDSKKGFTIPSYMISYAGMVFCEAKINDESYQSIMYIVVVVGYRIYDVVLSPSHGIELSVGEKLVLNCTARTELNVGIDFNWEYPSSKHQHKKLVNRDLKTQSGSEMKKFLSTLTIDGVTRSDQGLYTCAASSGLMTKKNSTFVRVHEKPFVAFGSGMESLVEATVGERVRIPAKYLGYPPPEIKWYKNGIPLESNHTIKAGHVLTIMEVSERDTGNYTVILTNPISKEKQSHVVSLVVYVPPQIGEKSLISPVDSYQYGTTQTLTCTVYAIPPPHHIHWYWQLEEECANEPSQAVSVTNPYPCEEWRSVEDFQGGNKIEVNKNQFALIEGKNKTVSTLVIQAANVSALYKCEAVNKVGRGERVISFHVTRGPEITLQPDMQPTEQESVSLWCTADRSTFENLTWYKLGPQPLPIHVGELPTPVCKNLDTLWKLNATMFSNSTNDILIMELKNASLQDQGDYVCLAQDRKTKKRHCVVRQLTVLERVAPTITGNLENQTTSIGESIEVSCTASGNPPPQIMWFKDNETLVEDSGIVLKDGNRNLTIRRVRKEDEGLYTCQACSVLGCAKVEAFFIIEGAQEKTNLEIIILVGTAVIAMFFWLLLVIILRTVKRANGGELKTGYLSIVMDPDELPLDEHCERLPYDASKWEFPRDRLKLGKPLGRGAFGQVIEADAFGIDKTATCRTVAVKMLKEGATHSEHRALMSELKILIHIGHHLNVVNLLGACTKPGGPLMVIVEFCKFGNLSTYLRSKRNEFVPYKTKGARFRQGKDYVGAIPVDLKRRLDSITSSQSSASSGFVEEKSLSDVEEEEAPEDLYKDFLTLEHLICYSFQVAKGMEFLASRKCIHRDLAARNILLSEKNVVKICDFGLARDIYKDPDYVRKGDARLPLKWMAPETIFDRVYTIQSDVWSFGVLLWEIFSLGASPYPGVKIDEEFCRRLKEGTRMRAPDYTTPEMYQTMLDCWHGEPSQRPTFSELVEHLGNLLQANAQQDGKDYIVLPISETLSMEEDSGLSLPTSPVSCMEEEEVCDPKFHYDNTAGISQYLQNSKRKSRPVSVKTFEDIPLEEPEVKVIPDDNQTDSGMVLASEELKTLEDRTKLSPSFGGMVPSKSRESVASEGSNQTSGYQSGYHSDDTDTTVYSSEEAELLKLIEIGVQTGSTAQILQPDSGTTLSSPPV

SMILES	inhibition at 10 µM (VEGFR-2)	inhibition at 10 µM (ACHN)	GI50 (ACHN)	inhibition at 10 µM (DU-145)	GI50 (DU-145)	inhibition at 10 µM (EKVX)	GI50 (EKVX)	inhibition at 10 µM (K-562)	GI50 (K-562)	inhibition at 10 µM (LOX IMVI)	GI50 (LOX IMVI)	inhibition at 10 µM (M14)	GI50 (M14)	inhibition at 10 µM (NCI-H322M)	GI50 (NCI-H322M)	inhibition at 10 µM (OVCAR-4)	inhibition at 10 µM (RPMI-8226)	inhibition at 10 µM (SK-MEL-2)	inhibition at 10 µM (SNB-19)	inhibition at 10 µM (T-47D)	also measured
COc1cccc(C=NNC(=O)c2ccc3[nH]c(-c4ccccc4)nc3c2)c1O [8d, N'-(2-hydroxy-3-methoxybenzylidene)-2-phenyl-1H-benzo[d]imidazole-5-carbohydrazide]	53.8 ± 2.62%	83.3%	2.28 µM	79.7%	3.05 µM	87.6%	1.86 µM	60.9%	2.04 µM	92.9%	1.34 µM	> 100%	1.57 µM	88%	1.41 µM	> 100%	98.5%	34.3%	90.4%		GI50 (OVCAR-4): 1.85 µM; GI50 (RPMI-8226): 1.86 µM; GI50 (SK-MEL-2): 1.64 µM; GI50 (SNB-19): 2.41 µM; GI50 (T-47D): 1.93 µM
COc1ccc(-c2nc3cc(C(=O)NN=Cc4cc(OC)ccc4OC)ccc3[nH]2)cc1 [8m, N'-(2,5-Dimethoxybenzylidene)-2-(4-methoxyphenyl)-1H-benzo[d]imidazole-5-carbohydrazide]	6.67 ± 0.08%	8.59%		< 5%		10.6%		22.8%		18.8%		< 5%		< 5%		8.31%	76.8%	11.1%	< 5%	40.6%	
COc1ccc(-c2nc3cc(C(=O)NN=Cc4ccc(OC)c(O)c4)ccc3[nH]2)cc1 [8l, N'-(3-Hydroxy-4-methoxybenzylidene)-2-(4-methoxyphenyl)-1H-benzo[d]imidazole-5-carbohydrazide]	50.6 ± 5.29%	< 5%		27.9%		12.9%		48.5%		37.9%		63.5%		24%		9.88%	32.4%	25.8%	16.1%	52.5%	
COc1ccc(OC)c(C=NNC(=O)c2ccc3[nH]c(-c4ccc(Cl)cc4)nc3c2)c1 [8t, 2-(4-Chlorophenyl)-N'-(2,5-dimethoxybenzylidene)-1H-benzo[d]imidazole-5-carbohydrazide]	34 ± 2.57%	53.1%		52%		42.5%		52.9%		34.6%		30.9%		28.9%		38.9%	62.2%	< 5%	45.7%	61.8%	
COc1ccc(-c2nc3cc(C(=O)NN=Cc4cccc(OC)c4O)ccc3[nH]2)cc1 [8k, N'-(2-Hydroxy-3-methoxybenzylidene)-2-(4-methoxyphenyl)-1H-benzo[d]imidazole-5-carbohydrazide]	69.5 ± 4.37%	87.7%	4.19 µM	85.1%	5.06 µM	98.1%	2.3 µM	> 100%	3.74 µM	> 100%	2.34 µM	91%	2.81 µM	95.9%	3.04 µM	86%	> 100%	39.1%	> 100%	95%	GI50 (OVCAR-4): 3.26 µM; GI50 (RPMI-8226): 2.8 µM; GI50 (SK-MEL-2): 6.3 µM; GI50 (SNB-19): 3.33 µM; GI50 (T-47D): 3.48 µM

Reference: paper PMC10893631, “Receptor-based pharmacophore modeling, molecular docking, synthesis and biological evaluation of novel VEGFR-2, FGFR-1, and BRAF multi-kinase inhibitors” (BMC Chemistry, 2024)
